According to patent US12679878B2, “CRF2 receptor agonists and their use in therapy” (SANOFI, priority 2020, dated 2026):
Read-outs that look alike come from different tables or passages of the source. Starred links: 1 amine or outer side, 2 acyl side, 3 side chain; linkers in the order of their positions; H or OH if unused. Non-standard residues stand in square brackets, D forms with d. Residues, ends and D or L forms follow the SMILES beside them. Groups on a side chain read outwards from the residue. *: point of attachment. C20 diacid = O=C(O)CCCCCCCCCCCCCCCCCCC(=O)*; C18 diacid = O=C(O)CCCCCCCCCCCCCCCCC(=O)*; γGlu = O=C(O)[C@H](CCC(=O)[*:2])N[*:1]; AEEA = NCCOCCOCC(=O)O; Aib = CC(C)(N)C(=O)O

Experiments:
Assay type in all cases: cell-based
human CRF2α receptor = target: T1, human CRF2α receptor (Homo sapiens, UniProt Q13324); test: cAMP agonism at human CRF2 α receptor in TeloHEAC cells (Example 7); settings: cAMP HTRF, TeloHEAC cells stably expressing human CRF2 α
T1 construct: expressed in transfected cells; host or cells: TeloHEAC
T1 sequence (Q13324 1-411): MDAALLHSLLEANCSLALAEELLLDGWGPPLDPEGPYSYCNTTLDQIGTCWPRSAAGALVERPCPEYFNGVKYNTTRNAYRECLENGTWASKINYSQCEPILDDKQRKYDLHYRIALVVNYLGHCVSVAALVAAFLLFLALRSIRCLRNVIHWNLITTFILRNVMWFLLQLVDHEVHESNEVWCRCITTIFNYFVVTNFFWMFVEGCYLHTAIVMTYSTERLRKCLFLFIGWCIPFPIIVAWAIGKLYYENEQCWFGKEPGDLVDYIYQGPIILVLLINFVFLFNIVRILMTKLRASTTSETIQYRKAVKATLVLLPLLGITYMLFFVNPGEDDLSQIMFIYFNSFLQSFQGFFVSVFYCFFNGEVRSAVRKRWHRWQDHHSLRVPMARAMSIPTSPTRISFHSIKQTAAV
In short: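 Steps: thaw and wash cells; suspend in 1×HBSS, 20 mM HEPES, 0 or 0.1% HSA, 2 mM IBMX; add compound, 30 min RT; lyse with HTRF reagents, 1 h; read 665/620 nm. EC50 calculated, E% versus 1000 nM UCN2.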

rat CRF2R α receptor = test: cAMP agonism at rat CRF2R α receptor in A7R5 rat aortic smooth muscle cells (Example 8); settings: cAMP HTRF, A7R5 rat aortic smooth muscle cell line, 0% HSA
In short: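 Potency (EC50) is the concentration reaching half-maximal activation, with responses scaled so that 1000 nM urocortin 2 equals 100%. Intracellular cAMP was quantified by homogeneous time-resolved fluorescence at 665/620 nm, 1 h after lysis-buffer reagents. Compound stimulation lasted 30 min at room temperature on 2000 IBMX-treated (2 mM) cells per well in HEPES-buffered HBSS.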

CRF1R receptor = target: T2, CRF1R receptor (Homo sapiens, UniProt P34998); test: cAMP activity at anti-target CRF1R, CRF1R-overexpression CHO cell line (Example 9); settings: for EC50: 0% HSA
T2 construct: host or cells: CHO-K1 clone 2
T2 sequence (P34998 24-415): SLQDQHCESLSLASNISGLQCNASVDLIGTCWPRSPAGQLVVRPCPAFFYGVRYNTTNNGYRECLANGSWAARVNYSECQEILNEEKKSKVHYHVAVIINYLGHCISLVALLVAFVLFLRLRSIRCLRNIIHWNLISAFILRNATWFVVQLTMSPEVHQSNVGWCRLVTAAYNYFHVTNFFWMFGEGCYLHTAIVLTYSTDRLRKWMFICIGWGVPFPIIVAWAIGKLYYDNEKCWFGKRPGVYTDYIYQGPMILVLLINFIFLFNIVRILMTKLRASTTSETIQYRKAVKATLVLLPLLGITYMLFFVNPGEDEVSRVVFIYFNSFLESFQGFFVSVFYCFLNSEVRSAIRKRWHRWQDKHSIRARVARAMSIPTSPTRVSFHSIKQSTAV
In short: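 Using thawed CRF1R-overexpressing CHO cells at 2000 per well, compound is applied for 30 min at RT in HBSS/HEPES buffer with IBMX. Cellular cAMP content is determined via HTRF, and percent activity is calculated against 1000 nM UCN2 defined as 100%.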

[1] = 0% HSA, read-out: EC50 [nM], 0% HSA
[2] = CRF1R-overexpression CHO cell line
[3] = CRF1R-overexpression CHO cell line, read-out: Emax (%)

Work on `CC[C@H](C)[C@H](NC(=O)[C@H](CCC(N)=O)NC(=O)[C@H](CCCCNC(=O)COCCOCCNC(=O)COCCOCCNC(=O)CC[C@H](NC(=O)CCCCCCCCCCCCCCCCC(=O)O)C(=O)O)NC(=O)[C@H](CC(C)C)NC(=O)[C@H](CCCCN)NC(=O)[C@@H](NC(=O)[C@@H]1CCCN1C(=O)[C@@H](NC(=O)[C@H](CC(=O)O)NC(=O)[C@H](CC(C)C)NC(=O)[C@H](CO)NC(=O)[C@H](CC(C)C)NC(=O)[C@@H](NC(=O)[C@@H](N)Cc1ccccc1)[C@@H](C)O)C(C)C)[C@@H](C)CC)C(=O)N[C@@H](CC(C)C)C(=O)N[C@@H](CC(C)C)C(=O)N[C@@H](CCCCN)C(=O)N[C@@H](CCC(N)=O)C(=O)N[C@@H](CCC(N)=O)C(=O)N[C@@H](CCCCN)C(=O)N[C@@H](CCC(N)=O)C(=O)N[C@@H](CCCCN)C(=O)N[C@@H](CCCCN)C(=O)N[C@@H](CCC(=O)O)C(=O)N[C@@H](CCCNC(=N)N)C(=O)N[C@@H](CCC(N)=O)C(=O)N[C@@H](CCC(N)=O)C(=O)N[C@@H](C)C(=O)N[C@@H](CCC(=O)O)C(=O)N[C@H](C(=O)N[C@@H](CC(N)=O)C(=O)N[C@H](C(=O)N[C@@H](CCC(N)=O)C(=O)N[C@@H](CC(C)C)C(=O)N[C@@H](CC(C)C)C(=O)N[C@@H](CCC(=O)O)C(=O)N[C@@H](CCCNC(=N)N)C(=O)N[C@H](C(N)=O)C(C)C)C(C)C)[C@@H](C)O` [compound 54] (H-FTLSLDVPIKLK([AEEA-AEEA-γGlu-C18 diacid])QILLKQQKQKKERQQAETNVQLLERV-NH2) yielded an EC50 (human CRF2α receptor; [1]) of 0.57 nM, an EC50 (human CRF2α receptor; 0.1% HSA, read-out: EC50 [nM], 0.1% HSA) of 24.5 nM and an EC50 (rat CRF2R α receptor) of 1.51 nM. It also gave an Emax (CRF1R receptor; CHO) of 2.72%.
`CC[C@H](C)[C@H](NC(=O)[C@H](CCC(N)=O)NC(=O)[C@H](CCCCNC(=O)COCCOCCNC(=O)COCCOCCNC(=O)CC[C@H](NC(=O)CCCCCCCCCCCCCCCCCCC(=O)O)C(=O)O)NC(=O)[C@H](CC(C)C)NC(=O)[C@H](CCCCN)NC(=O)[C@@H](NC(=O)[C@@H]1CCCN1C(=O)[C@@H](NC(=O)[C@H](CC(=O)O)NC(=O)[C@H](CC(C)C)NC(=O)[C@H](CO)NC(=O)[C@H](CC(C)C)NC(=O)[C@@H](NC(=O)[C@@H](N)Cc1ccccc1)[C@@H](C)O)C(C)C)[C@@H](C)CC)C(=O)N[C@@H](CC(C)C)C(=O)N[C@@H](CC(C)C)C(=O)N[C@@H](CCCCN)C(=O)N[C@@H](CCC(N)=O)C(=O)N[C@@H](CCC(N)=O)C(=O)N[C@@H](CCCCN)C(=O)N[C@@H](CCC(N)=O)C(=O)N[C@@H](CCCCN)C(=O)N[C@@H](CCCCN)C(=O)N[C@@H](CCC(=O)O)C(=O)N[C@@H](CCCNC(=N)N)C(=O)N[C@@H](CCC(N)=O)C(=O)N[C@@H](CCC(N)=O)C(=O)N[C@@H](C)C(=O)N[C@@H](CCC(=O)O)C(=O)N[C@H](C(=O)N[C@@H](CC(N)=O)C(=O)N[C@H](C(=O)N[C@@H](CCC(N)=O)C(=O)N[C@@H](CC(C)C)C(=O)N[C@@H](CC(C)C)C(=O)N[C@@H](CCC(=O)O)C(=O)N[C@@H](CCCNC(=N)N)C(=O)N[C@H](C(N)=O)C(C)C)C(C)C)[C@@H](C)O` [compound 62] (H-FTLSLDVPIKLK([AEEA-AEEA-γGlu-C20 diacid])QILLKQQKQKKERQQAETNVQLLERV-NH2) was tested, and the EC50 (human CRF2α receptor; [1]) was 0.8 nM, the EC50 (rat CRF2R α receptor) was 2.9 nM and the Emax (CRF1R receptor; CHO) was 2.28%.
Work on `CC[C@H](C)[C@H](NC(=O)[C@H](CCC(N)=O)NC(=O)[C@H](CCCCNC(=O)COCCOCCNC(=O)COCCOCCNC(=O)CC[C@H](NC(=O)CCCCCCCCCCCCCCCCCCC(=O)O)C(=O)O)NC(=O)[C@H](CC(C)C)NC(=O)[C@H](CCCCN)NC(=O)[C@@H](NC(=O)[C@@H]1CCCN1C(=O)[C@@H](NC(=O)[C@H](CC(=O)O)NC(=O)[C@H](CC(C)C)NC(=O)[C@H](CO)NC(=O)[C@H](CC(C)C)NC(=O)[C@@H](NC(=O)[C@@H](N)Cc1ccccc1)[C@@H](C)O)C(C)C)[C@@H](C)CC)C(=O)N[C@@H](CC(C)C)C(=O)N[C@@H](CC(C)C)C(=O)N[C@@H](CCC(=O)O)C(=O)N[C@@H](CCC(N)=O)C(=O)N[C@@H](CCC(N)=O)C(=O)N[C@@H](CCCCN)C(=O)N[C@@H](CCC(N)=O)C(=O)N[C@@H](CCCCN)C(=O)N[C@@H](CCCCN)C(=O)N[C@@H](CCC(=O)O)C(=O)N[C@@H](CCCNC(=N)N)C(=O)N[C@@H](CCC(N)=O)C(=O)N[C@@H](CCC(N)=O)C(=O)N[C@@H](C)C(=O)N[C@@H](CCC(=O)O)C(=O)N[C@H](C(=O)N[C@@H](CC(N)=O)C(=O)N[C@H](C(=O)N[C@@H](CCC(N)=O)C(=O)N[C@@H](CC(C)C)C(=O)N[C@@H](CC(C)C)C(=O)N[C@@H](CCC(=O)O)C(=O)N[C@@H](CCCNC(=N)N)C(=O)N[C@H](C(N)=O)C(C)C)C(C)C)[C@@H](C)O` [compound 63] (H-FTLSLDVPIKLK([AEEA-AEEA-γGlu-C20 diacid])QILLEQQKQKKERQQAETNVQLLERV-NH2) yielded an EC50 (human CRF2α receptor; [1]) of 0.63 nM, an EC50 (rat CRF2R α receptor) of 4.73 nM and an EC50 (CRF1R receptor; [2]) greater than 1000 nM. The Emax (CRF1R receptor; [3]) was 4.68%.
`CC[C@H](C)[C@H](N)C(=O)N[C@H](C(=O)N[C@@H](CC(C)C)C(=O)N[C@@H](CO)C(=O)N[C@@H](CC(C)C)C(=O)N[C@@H](CC(=O)O)C(=O)N[C@H](C(=O)N1CCC[C@H]1C(=O)N[C@H](C(=O)N[C@@H](CCCCN)C(=O)N[C@@H](CC(C)C)C(=O)N[C@@H](CCCCNC(=O)COCCOCCNC(=O)COCCOCCNC(=O)CC[C@H](NC(=O)CCCCCCCCCCCCCCCCC(=O)O)C(=O)O)C(=O)N[C@@H](CCCCN)C(=O)NC(C)(C)C(=O)N[C@@H](CC(C)C)C(=O)N[C@@H](CC(C)C)C(=O)N[C@@H](CCC(=O)O)C(=O)N[C@@H](CCC(N)=O)C(=O)N[C@@H](CCC(=O)O)C(=O)N[C@@H](CCCNC(=N)N)C(=O)N[C@@H](CCC(N)=O)C(=O)N[C@@H](CCCCN)C(=O)N[C@@H](CCCCN)C(=O)N[C@@H](CCC(N)=O)C(=O)N[C@@H](CCCNC(=N)N)C(=O)N[C@@H](CCC(=O)O)C(=O)N[C@@H](CCC(N)=O)C(=O)N[C@@H](C)C(=O)N[C@@H](CCC(=O)O)C(=O)N[C@H](C(=O)N[C@@H](CC(N)=O)C(=O)N[C@@H](CCCCN)C(=O)N[C@@H](CCC(N)=O)C(=O)N[C@H](C(=O)N[C@@H](CC(C)C)C(=O)N[C@@H](C)C(=O)N[C@@H](CCC(N)=O)C(=O)N[C@H](C(N)=O)C(C)C)[C@@H](C)CC)[C@@H](C)O)[C@@H](C)CC)C(C)C)C(C)C` [compound 69] (H-IVLSLDVPIKLK([AEEA-AEEA-γGlu-C18 diacid])K[Aib]LLEQERQKKQREQAETNKQILAQV-NH2; N-terminus assumed) showed an EC50 (human CRF2α receptor; [1]) of 0.61 nM, an EC50 (rat CRF2R α receptor) of 7.33 nM and an EC50 (CRF1R receptor; [2]) greater than 1000 nM. The Emax (CRF1R receptor; [3]) was 0.02%.
In the case of `CC[C@H](C)[C@H](N)C(=O)N[C@H](C(=O)N[C@@H](CC(C)C)C(=O)N[C@@H](CO)C(=O)N[C@@H](CC(C)C)C(=O)N[C@@H](CC(=O)O)C(=O)N[C@H](C(=O)N1CCC[C@H]1C(=O)N[C@H](C(=O)N[C@@H](CCCCN)C(=O)N[C@@H](CC(C)C)C(=O)N[C@@H](CCCCNC(=O)COCCOCCNC(=O)COCCOCCNC(=O)CC[C@H](NC(=O)CCCCCCCCCCCCCCCCC(=O)O)C(=O)O)C(=O)N[C@@H](CCC(N)=O)C(=O)N[C@H](C(=O)N[C@@H](CC(C)C)C(=O)N[C@@H](CC(C)C)C(=O)N[C@@H](CCC(=O)O)C(=O)N[C@@H](CCC(N)=O)C(=O)N[C@@H](CCC(=O)O)C(=O)N[C@@H](CCCNC(=N)N)C(=O)N[C@@H](CCC(N)=O)C(=O)N[C@@H](CCCCN)C(=O)N[C@@H](CCCCN)C(=O)N[C@@H](CCC(N)=O)C(=O)N[C@@H](CCCNC(=N)N)C(=O)N[C@@H](CCC(=O)O)C(=O)N[C@@H](CCC(N)=O)C(=O)N[C@@H](C)C(=O)N[C@@H](CCC(=O)O)C(=O)N[C@H](C(=O)N[C@@H](CC(N)=O)C(=O)NC(C)(C)C(=O)N[C@@H](CCC(N)=O)C(=O)N[C@H](C(=O)N[C@@H](CC(C)C)C(=O)N[C@@H](C)C(=O)N[C@@H](CCC(N)=O)C(=O)N[C@H](C(N)=O)C(C)C)[C@@H](C)CC)[C@@H](C)O)[C@@H](C)CC)[C@@H](C)CC)C(C)C)C(C)C` [compound 70] (H-IVLSLDVPIKLK([AEEA-AEEA-γGlu-C18 diacid])QILLEQERQKKQREQAETN[Aib]QILAQV-NH2; N-terminus assumed), the EC50 (human CRF2α receptor; [1]) is reported as 0.91 nM, the EC50 (rat CRF2R α receptor) is reported as 8.72 nM and the EC50 (CRF1R receptor; [2]) is reported as greater than 1000 nM. For the same compound, the Emax (CRF1R receptor; [3]) was 3.03%.
